Data on 6 compounds can be found in patent US7632811B2, “Analogs of parathyroid hormone” (Societe de Conseils de Recherches et D'Applications …, priority 1995, dated 2009).

Non-standard residues stand in square brackets, D forms with d. Residues, ends and D or L forms follow the SMILES beside them. Cha = N[C@@H](CC1CCCCC1)C(=O)O; Nle = CCCC[C@H](N)C(=O)O; Aib = CC(C)(N)C(=O)O

By Kd is commonly meant the free concentration of one partner at which half of the binding sites on the other are occupied at equilibrium, for simple one-to-one binding.

This experiment has as its target T1, PTH receptor present on SaOS-2 (human osteosarcoma cells) (Homo sapiens, UniProt Q03431).
T1 construct: host or cells: SaOS-2 human osteosarcoma cells (intact, confluent monolayers)
T1 sequence (Q03431 27-593): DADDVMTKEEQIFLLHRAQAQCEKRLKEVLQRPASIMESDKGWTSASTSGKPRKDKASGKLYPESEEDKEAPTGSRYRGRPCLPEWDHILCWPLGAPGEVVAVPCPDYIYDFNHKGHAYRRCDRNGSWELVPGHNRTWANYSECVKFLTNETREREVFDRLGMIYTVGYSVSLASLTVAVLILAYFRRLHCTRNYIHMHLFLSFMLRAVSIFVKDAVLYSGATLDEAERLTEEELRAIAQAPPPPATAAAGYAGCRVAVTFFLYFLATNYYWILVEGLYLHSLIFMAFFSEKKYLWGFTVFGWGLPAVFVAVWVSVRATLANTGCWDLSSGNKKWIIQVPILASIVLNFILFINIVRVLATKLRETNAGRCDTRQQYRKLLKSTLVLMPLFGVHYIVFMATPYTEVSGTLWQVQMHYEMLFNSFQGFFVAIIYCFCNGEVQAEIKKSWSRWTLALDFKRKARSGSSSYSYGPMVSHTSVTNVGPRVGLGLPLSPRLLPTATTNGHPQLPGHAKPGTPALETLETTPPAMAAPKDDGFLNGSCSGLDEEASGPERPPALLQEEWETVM
Nature of the experiment: Binding to PTH receptor on SaOS-2 cells (competition with mono-125I-[Nle8,18,Tyr34(3-125I)]bPTH(1-34)NH2). The conditions noted are these: Table I, 2 hrs at room temperature, read-out: Kd (half maximal inhibition of binding of mono-125I-[Nle8,18, Tyr34(3-125I)]bPTH(1-34)NH2). As to the method: A. Binding to PTH Receptor
The peptides of the invention were tested for their ability to bind to the PTH receptor present on SaOS-2 (human osteosarcoma cells). SaOS-2 cells (American Type Culture Collection, Rockville, Md.; ATCC #HTB 85) were maintained in RPMI 1640 medium (Sigma, St. Louis, Mo.) supplemented with 10% fetal bovine serum (FBS) and 2 mM glutamine at 37EC in a humidified atmosphere of 5% CO2 in air. The medium was changed every three or four days, and the cells were subcultured every week by trypsinization.
SaOS-2 cells were maintained for four days until they had reached confluence. The medium was replaced with 5% FBS in RPMI 1640 medium and incubated for 2 hrs at room temperature with 10×10^4 cpm mono-^125I-[Nle^8,18, Tyr^34(3-^125I)]bPTH(1-34)NH2 in the presence of a competing peptides of the invention at various concentrations between 10^−11 M to 10^−4 M. The cells were washed four times with ice-cold PBS and lysed with 0.1 M NaOH, and the radioactivity associated with the cells was counted in a scintillation counter. Synthesis of mono-^125I-[Nle^8,18, Tyr^34(3-^125I)]bPTH(1-34)NH2 was carried out as described in Goldman, M. E., et al., Endocrinol., 123:1468 (1988).
The binding assay was conducted with various peptides of the invention, and the Kd value (half maximal inhibition of binding of mono-^125I-[Nle^8,18, Tyr^34(3-^125I)]bPTH(1-34)NH2) for each peptide was calculated.
Consider `CC[C@H](C)[C@H](NC(=O)[C@H](CCC(=O)O)NC(=O)[C@H](CO)NC(=O)[C@@H](NC(=O)[C@@H](N)CO)C(C)C)C(=O)N[C@@H](CCC(N)=O)C(=O)N[C@@H](CC1CCCCC1)C(=O)N[C@@H](CCSC)C(=O)N[C@@H](Cc1c[nH]cn1)C(=O)N[C@@H](CC(N)=O)C(=O)N[C@@H](CC1CCCCC1)C(=O)NCC(=O)N[C@@H](CCCCN)C(=O)N[C@@H](Cc1c[nH]cn1)C(=O)N[C@@H](CC(C)C)C(=O)NC(C)(C)C(=O)N[C@@H](CO)C(=O)N[C@@H](CCSC)C(=O)N[C@@H](CCC(=O)O)C(=O)N[C@@H](CCCNC(=N)N)C(=O)N[C@H](C(=O)N[C@@H](CCC(=O)O)C(=O)N[C@@H](Cc1c[nH]c2ccccc12)C(=O)N[C@@H](CC(C)C)C(=O)N[C@@H](CCCNC(=N)N)C(=O)N[C@@H](CCCCN)C(=O)N[C@@H](CCCCN)C(=O)N[C@@H](CC(C)C)C(=O)N[C@@H](CCC(N)=O)C(=O)N[C@@H](CC(=O)O)C(=O)N[C@H](C(=O)N[C@@H](Cc1c[nH]cn1)C(=O)N[C@@H](CC(N)=O)C(=O)N[C@@H](Cc1ccccc1)C(N)=O)C(C)C)C(C)C` [[Cha^7,11, Aib^16]hPTH(1-34)NH2] (H-SVSEIQ[Cha]MHN[Cha]GKHL[Aib]SMERVEWLRKKLQDVHNF-NH2), for which the Kd is 4 nM.

Regarding `CC[C@H](C)[C@H](NC(=O)[C@H](CCC(=O)O)NC(=O)[C@H](CO)NC(=O)[C@@H](NC(=O)[C@@H](N)CO)C(C)C)C(=O)N[C@@H](CCC(N)=O)C(=O)N[C@@H](CC1CCCCC1)C(=O)N[C@@H](CCSC)C(=O)N[C@@H](Cc1c[nH]cn1)C(=O)N[C@@H](CC(N)=O)C(=O)N[C@@H](CC1CCCCC1)C(=O)NCC(=O)N[C@@H](CCCCN)C(=O)N[C@@H](Cc1c[nH]cn1)C(=O)N[C@@H](CC(C)C)C(=O)N[C@@H](CC(N)=O)C(=O)N[C@@H](CO)C(=O)N[C@@H](CCSC)C(=O)NC(C)(C)C(=O)N[C@@H](CCCNC(=N)N)C(=O)N[C@H](C(=O)N[C@@H](CCC(=O)O)C(=O)N[C@@H](Cc1c[nH]c2ccccc12)C(=O)N[C@@H](CC(C)C)C(=O)N[C@@H](CCCNC(=N)N)C(=O)N[C@@H](CCCCN)C(=O)N[C@@H](CCCCN)C(=O)N[C@@H](CC(C)C)C(=O)N[C@@H](CCC(N)=O)C(=O)N[C@@H](CCCCN)C(=O)N[C@H](C(=O)N[C@@H](Cc1c[nH]cn1)C(=O)N[C@@H](CC(N)=O)C(=O)N[C@@H](Cc1ccccc1)C(N)=O)C(C)C)C(C)C` [[Cha^7,11, Aib^19, Lys^30]hPTH(1-34)NH2] (H-SVSEIQ[Cha]MHN[Cha]GKHLNSM[Aib]RVEWLRKKLQKVHNF-NH2), the Kd turned out to be 4 nM.

Turning to `CC[C@H](C)[C@H](NC(=O)[C@H](CCC(=O)O)NC(=O)[C@H](CO)NC(=O)[C@@H](NC(=O)[C@@H](N)CO)C(C)C)C(=O)N[C@@H](CCC(N)=O)C(=O)N[C@@H](CC1CCCCC1)C(=O)N[C@@H](CCSC)C(=O)N[C@@H](Cc1c[nH]cn1)C(=O)N[C@@H](CC(N)=O)C(=O)N[C@@H](CC1CCCCC1)C(=O)NCC(=O)N[C@@H](CCCCN)C(=O)N[C@@H](Cc1c[nH]cn1)C(=O)N[C@@H](CC(C)C)C(=O)N[C@@H](CC(N)=O)C(=O)N[C@@H](CO)C(=O)N[C@@H](CCSC)C(=O)NC(C)(C)C(=O)N[C@@H](CCCNC(=N)N)C(=O)N[C@H](C(=O)N[C@@H](CCC(=O)O)C(=O)N[C@@H](Cc1c[nH]c2ccccc12)C(=O)N[C@@H](CC(C)C)C(=O)N[C@@H](CCCNC(=N)N)C(=O)N[C@@H](CCCCN)C(=O)N[C@@H](CCCCN)C(=O)N[C@@H](CC(C)C)C(=O)N[C@@H](CCC(N)=O)C(=O)N[C@@H](CC(=O)O)C(=O)N[C@H](C(=O)N[C@@H](Cc1c[nH]cn1)C(=O)N[C@@H](CC(N)=O)C(=O)N[C@@H](Cc1ccccc1)C(N)=O)C(C)C)C(C)C` [[Cha^7,11, Aib^19]hPTH(1-34)NH2] (H-SVSEIQ[Cha]MHN[Cha]GKHLNSM[Aib]RVEWLRKKLQDVHNF-NH2), the Kd came out at 7 nM.

As for `CCCC[C@H](NC(=O)[C@H](CC(=O)O)NC(=O)[C@H](CCC(N)=O)NC(=O)[C@H](CC(C)C)NC(=O)[C@H](CCCCN)NC(=O)[C@H](CCCCN)NC(=O)[C@H](CCCNC(=N)N)NC(=O)[C@H](CC(C)C)NC(=O)[C@H](Cc1c[nH]c2ccccc12)NC(=O)[C@H](CCC(=O)O)NC(=O)[C@@H](NC(=O)[C@H](CCCNC(=N)N)NC(=O)C(C)(C)NC(=O)[C@H](CCCC)NC(=O)[C@H](CO)NC(=O)C(C)(C)NC(=O)[C@H](CC(C)C)NC(=O)[C@H](Cc1c[nH]cn1)NC(=O)[C@H](CCCCN)NC(=O)CNC(=O)[C@H](CC1CCCCC1)NC(=O)[C@H](CC(N)=O)NC(=O)[C@H](Cc1c[nH]cn1)NC(=O)[C@H](CCCC)NC(=O)[C@H](CC1CCCCC1)NC(=O)[C@H](CCC(N)=O)NC(=O)[C@@H](NC(=O)[C@H](CCC(=O)O)NC(=O)[C@H](CO)NC(=O)[C@@H](NC(=O)[C@@H](N)CO)C(C)C)[C@@H](C)CC)C(C)C)C(=O)N[C@@H](Cc1c[nH]cn1)C(=O)N[C@@H](CC(N)=O)C(=O)N[C@@H](Cc1ccc(O)cc1)C(N)=O` [[Cha^7,11, Nle^8,18,31, Aib^16,19, Tyr^34]hPTH(1-34)NH2] (H-SVSEIQ[Cha][Nle]HN[Cha]GKHL[Aib]S[Nle][Aib]RVEWLRKKLQD[Nle]HNY-NH2), the Kd amounted to 40 nM.

For the compound `CCCC[C@H](NC(=O)[C@H](CC1CCCCC1)NC(=O)[C@H](CCC(N)=O)NC(=O)[C@@H](NC(=O)[C@H](CCC(=O)O)NC(=O)[C@H](CO)NC(=O)[C@@H](NC(=O)[C@@H](N)CO)C(C)C)[C@@H](C)CC)C(=O)N[C@@H](Cc1c[nH]cn1)C(=O)N[C@@H](CC(N)=O)C(=O)N[C@@H](CC1CCCCC1)C(=O)NCC(=O)N[C@@H](CCCCN)C(=O)N[C@@H](Cc1c[nH]cn1)C(=O)N[C@@H](CC(C)C)C(=O)NC(C)(C)C(=O)N[C@@H](CO)C(=O)N[C@@H](CCCC)C(=O)NC(C)(C)C(=O)N[C@@H](CCCNC(=N)N)C(=O)N[C@H](C(=O)N[C@@H](CCC(=O)O)C(=O)N[C@@H](Cc1c[nH]c2ccccc12)C(=O)N[C@@H](CC(C)C)C(=O)N[C@@H](CCCNC(=N)N)C(=O)N[C@@H](CCCCN)C(=O)N[C@@H](CCCCN)C(=O)N[C@@H](CC(C)C)C(=O)N[C@@H](CCC(N)=O)C(=O)N[C@@H](CC(=O)O)C(=O)N[C@H](C(=O)N[C@@H](Cc1c[nH]cn1)C(=O)N[C@@H](CC(N)=O)C(=O)N[C@@H](Cc1ccc(O)cc1)C(N)=O)C(C)C)C(C)C` [[Cha^7,11, Nle^8,18, Aib^16,19, Tyr^34]hPTH (1-34)NH2] (H-SVSEIQ[Cha][Nle]HN[Cha]GKHL[Aib]S[Nle][Aib]RVEWLRKKLQDVHNY-NH2), the Kd was found to be 5 nM.

As to `CCCC[C@H](NC(=O)[C@H](CO)NC(=O)[C@H](CC(N)=O)NC(=O)[C@H](CC(C)C)NC(=O)[C@H](Cc1c[nH]cn1)NC(=O)[C@H](CCCCN)NC(=O)CNC(=O)[C@H](CC1CCCCC1)NC(=O)[C@H](CC(N)=O)NC(=O)[C@H](Cc1c[nH]cn1)NC(=O)[C@H](CCCC)NC(=O)[C@H](CC1CCCCC1)NC(=O)[C@H](CCC(N)=O)NC(=O)[C@@H](NC(=O)[C@H](CCC(=O)O)NC(=O)[C@H](CO)NC(=O)[C@@H](NC(=O)[C@@H](N)CO)C(C)C)[C@@H](C)CC)C(=O)N[C@@H](CCC(=O)O)C(=O)N[C@@H](CCCNC(=N)N)C(=O)N[C@H](C(=O)N[C@@H](CCC(=O)O)C(=O)N[C@@H](Cc1c[nH]c2ccccc12)C(=O)N[C@@H](CC(C)C)C(=O)N[C@@H](CCCNC(=N)N)C(=O)N[C@@H](CCCCN)C(=O)N[C@@H](CCCCN)C(=O)N[C@@H](CC(C)C)C(=O)N[C@@H](CCC(N)=O)C(=O)N[C@@H](CC(=O)O)C(=O)N[C@H](C(=O)N[C@@H](Cc1c[nH]cn1)C(=O)N[C@@H](CC(N)=O)C(=O)NC(C)(C)C(N)=O)C(C)C)C(C)C` [[Cha^7,11, Nle^8,18, Aib^34]hPTH(1-34)NH2] (H-SVSEIQ[Cha][Nle]HN[Cha]GKHLNS[Nle]ERVEWLRKKLQDVHN[Aib]-NH2), the Kd worked out at 30 nM.
